Laboratory results taken from patent US6054437A, “Method for inducing death of neoplastic cells using piperazine derivatives” (Hitachi Chemical Research Center, Inc., priority 1997, dated 2000).
Where a name gives a salt, the structure may show the parent alone.

Key:
[1] = system: HS-578T (breast); test: Cancer cell death assay (LDH release), HS-578T; assay type: cell-based, human; details: HS-578T, 25 μM, 1,000 and 1,500 cells/well (FIGS. 34, 35)
Protocol: 1. Cancer Cell Death Assay
Cell death was measured quantitatively by the release of a marker intracellular enzyme, lactate dehydrogenase (LDH), from damaged or killed cells. LDH released into the extracellular fluid, was measured 24 hours after drug exposure to cancer cells and the enzyme activity was determined by the method of Decker et al. (J. Immunolog Methods 15:61-99, 1988).
A series of analogs related to NCO-700 were assayed in the cancer cell death assay. […] It should be stressed that these analogs were tested alone, without any added chemotherapeutic agent.
Based on Experiment 1 above, the anti-cancer activity of NCO-700, TOP-008, and analogs, TOP-201, 202, 203, 204, 205, 206, 207, and 007, was tested in cancer cell death assays of human cancer cell line HS-578T. In FIGS. 34 (1,000 cells/well) and 35 (1,500 cells/well), a bar graph indicates the activity of a particular analog as measured by the % LDH released (DMSO, dimethyl sulfoxide=control), with higher values of LDH released indicating greater anti-neoplastic activity. All analogs were tested at a concentration of 25 μM.

[2] = system: WIDR (colon); test: Cancer cell survival assay, WIDR; assay type: cell-based, human; details: seven days, alone
Protocol: Cell survival was assayed in cultured tumor cells. From 500-1000 cells per well were plated in 24-welled culture dishes and exposed to drug for seven days. After drug exposure, a computerized cell imaging technique was utilized to ascertain the number of viable cells remaining in each culture. From the data, survival curves were plotted and a ED50 (drug concentration that permits 50% cell survival) were calculated.
The cancer cell survival assay is an important additional in vitro assay to assess the anti-neoplastic activity of compounds as the cells are given a prolonged exposure (seven days) to the drug. FIGS. 9-16 show the effect of increasing the dose of NCO-700 on the survival of a number of cancer cell lines. […] In the figures, the vertical axis is the object area, which is the number of surviving cancer cells calculated by a computer.
FIGS. 26-31 show the effect of increasing the dose of TOP-008 against a number of cancer cell lines. […] For example, if the activity of NCO-700 and TOP-008 are compared against the human colon cancer cell line WIDR (FIG. 16 in Experiment 1 versus FIG. 31) it is seen that the effective dose of TOP-008 is much lower in this particular assay.

[3] = system: human colon cancer cells; test: Subrenal capsule (SRC) tumor implant assay, colon cancer; assay type: in vivo, human tumor in BDF/1 mice
Protocol: FIG. 19 is a graph showing the relationship between the change in size of tumor and the dosage of NCO-700 in a sub-renal capsule assay of human colon cancer in BDF/1 mice.
A tumor implant model, where human tumors were implanted into the renal capsule of mice was performed. The tumors successfully escaped the immune system of the mouse and grew over a six-day period. The advantage of this assay is that the effect of chemotherapeutic agents can be tested in vivo. This model was developed at the University of California, Irvine by Stratton et al. (Gynecologic Oncology 17:185-188, 1984). Human tumors were implanted on day one and were exposed to drug on days two-six. The size of the implant was determined at time zero and at the end of five days of drug treatment, and the difference in size of the implanted tumor at day six, when compared to control animals not exposed to drug, is referred to herein as the delta mean.
The effect of NCO-700 on a colon cancer line was tested in the SRC assay. Three groups of animals (n=18 total) were tested with two concentrations of NCO-700 including. 50 mg/kg and 100 mg/kg. […] These studies confirm the high potential of NCO-700 and related compounds as new anti-neoplastic agents.

[4] = system: KB-V-1 (resistant cells); test: Drug accumulation assay ([3H]-vinblastine), resistant cells; assay type: cell-based, human; details: KB-V-1, 20 μM NCO-700 + vinblastine
Protocol: 1. Drug Accumulation Assays
where the effect of NCO-700 on the uptake of radioactive (^3 H)-vinblastine, an anticancer drug, is measured in cultured cancer cells, that are both drug-resistant and drug-sensitive (Reference 3).
In the first two in vitro assays, the drug accumulation assay and the cell survival assay, a human pharyngeal carcinoma cell line (KB-V-1) which is highly resistant to anticancer drugs was used. This cell line was developed by Drs. Ira Pastan and Michael Gottesman of the National Cancer Institute, by step-wise selection in colchicine of drug-resistant cells. The control cancer cell line (KB-3), from which the resistant cell lines were derived, is sensitive to anticancer drugs.
Measurement of [^3 H]-vinblastine accumulation was performed by the methods developed in the laboratory of Drs. […] In this method, KB-V-1 and KB-3 cells were plated in 10% fetal bovine serum at a density of 3×10^5 cells per well in 24-well Costar plates. The next day, the growth medium was replaced with Dulbecco's modified Eagle's medium with or without (control cells) 20 μM NCO-700. After ten minutes, the medium was removed and replaced with assay medium (0.5 ml) containing 0.1 μCi, (13 pmol) [^3 H]-vinblastine in the presence or absence of 20 μM NCO-700. After an additional 30 min, the medium was removed, the plates were washed three times in ice-cold phosphate-buffered saline, the cells were detached with trypsin, and radioactivity determined by scintillation counting.

[5] = system: KB-CH 8-5; test: In vivo model of tumorigenicity, nude mice carrying resistant human tumor
Protocol: 3. In Vivo Model of Tumorigenicity
where the effect of NCO-700 in the ability of adriamycin to reduce tumor mass in drug-resistant neoplasms was measured.
For the in vivo model of tumorigenicity, cell lines developed by Pastan and Gottesman which can grow as solid tumors in nude mice were utilized. This cell line was designated KB-CH 8-5, and was a nonreverting resistant cell line. All of these cancer cell lines were generously provided by Dr. Gottesman.
In the next series of experiments, an in vivo model of tumorigenicity was utilized to examine the effect of NCO-700 on tumor mass. These experiments were performed with the cell line KB-CH-8/5, which is a cell line developed by Drs. Gottesman and Pastan, specifically for use in animals as the cells from solid tumors in vivo. Nude male mice, 5-6 weeks old and weighing between 25-30 g, were injected subcutaneously with 2-5×10^6 KB-CH-8/5 cells and treated for 14 days with 0.6 mg/kg adriamycin and with or without NCO-700 in doses ranging from 0-80 mg/kg NCO-700 per day. The data shown in FIG. 37 were obtained by weighing the well-encapsulated, excised tumor and recording the body weight of the mice.

## CCOC(=O)[C@@H]1O[C@H]1C(=O)N[C@@H](CC(C)C)C(=O)N1CCN(Cc2ccc(OC)c(OC)c2OC)CC1 [NCO-700, Bis[ethyl (2R,3R)-3-[(S)-3-methyl-1-[4-(2,3,4-trimethoxyphenylmethyl)piperazin-1-ylcarbonyl]butylcarbamoyl]oxirane-2-carboxylate] Sulfate]
[1]
  anti-neoplastic activity (% LDH released): fairly good anti-neoplastic activity
[2]
  anti-neoplastic activity (cell survival): significant anti-neoplastic activity
[3]; 50 mg/kg
  effect on tumor size: slight effect
[3]; 100 mg/kg
  effect on tumor size: significant anti-neoplastic effect
[4]
  vinblastine accumulation: 1.56 ± 0.03 pmole vinblastine/mg protein
[5]; NCO-700 on its own
  effect on tumor, alone: not significantly effective on its own
[5]; NCO-700 with adriamycin
  decline of tumor mass: 60%
[5]; nude mice carrying resistant human tumor
  loss of body weight: without any corresponding loss of body weight
[5]; with 0.6 mg/kg adriamycin, 14 days, NCO-700 0-80 mg/kg per day
  potentiation of the effect of adriamycin on tumor: significantly potentiated the effect of adriamycin, especially at an amount of 40 mg/kg or more
